Counter-ions that a name gives are not always drawn.
How the values were obtained:
[1] = tested on: cells from 4 primitive epidermoid carcinomas of the larynx and 1 primitive undifferentiated carcinoma of the nasopharynx; test: In vitro short-term chemosensitivity assay (MTT), all five explants; type: cell-based, human
Description: (§1) The effects of L-aC on cells from 4 primitive epidermoid carcinomas of the larynx and 1 primitive undifferentiated carcinoma of the nasopharynx were tested.
(§2) Tissue fragments from the tumour mass were mechanically dissociated in Hank's solutions adding an antibiotic and an antifungal to obtain a cell monosuspension free of agglomerates. The resulting suspension was centrifuged at 1200 rpm for 5 minutes and the pellet was resuspended in MEM culture medium supplemented with 10% of patient serum, to obtain a concentration of 10^5 cells/ml. Subsequently, 180 μl of the resulting suspension were dispensed in microplate wells and incubated under 5% CO2 atmosphere at 37° C. for 3 days. After that, the antitumor medicaments were added in the amount of 20 μl for each well, at a concentration of 0.1×, 1× and 10× the maximum serum concentrations that can usually be reached in clinical practice. 24 h after the beginning of the exposure to the antitumour medicament, 100 μl of MTT were added, and after 4 h, a further 150 μl of dimethylsulfoxide were added.
(§3) The optical density was evaluated by a Uniscan microspectrophotometer with a […] wavelength filter. Cytotoxicity was evaluated as percentage of the optical density of the treated sample compared with the optical density of the control.
(§4) Bleomycin (BLEC), […] (CDDP), 5-fluoruracil (5-FU), vincristine (VCR), epidoxorubicin (Epi-Dx) and methotrexate (MTX) were tested for comparison purposes.
(§5) L-aC was tested at the following concentrations: 0.2-2-20 mg/ml.

[2] = tested on: Cells from Larynx Carcinoma Explant; test: In vitro short-term chemosensitivity assay (MTT); type: cell-based, human
Description: as §1, §2, §3, §4, §5
In vitro short-term chemosensitivity assay (according to Hill and coll.)
(Cell Vitality Percentage After Exposure to the Antitumoral)—Raw Data
(Cells from Larynx Carcinoma Explant)

[3] = tested on: Yoshida tumour; test: Chemopreventive effects on Yoshida tumour inoculation and thriving; type: in vivo, Sprague-Dowley rats; details: for animals showing ascites: day 8 after inoculation; for animals free from the disease and still alive: day 27 of observation
Description: In order to elucidate the actual chemoprevention antitumour Potentialities of L-aC, 125 Sprague-Dowley rats (4 months old, mean weight: 200 g), under standard feeding and temperature conditions (25° C.), were divided in 5 groups and treated as follows:
Group 1: 25 rats were intraperitoneally treated, on alternate days for 10 days, with 25 mg of L-aC diluted in 5 ml of saline solution. On day 10 they were inoculated with Yoshida tumour.
Group 2: 25 rats were intraperitoneally treated, on alternate days for 10 days, with 25 mg of L-aC diluted in 5 ml of saline solution. On day 10 they were inoculated with Yoshida tumour. Starting from day 11, they were further treated intraperitoneally, on alternate days, with 25 mg of L-aC diluted in 5 ml of saline solution, for a further 10 days.
Group 3: 25 previously untreated rats were inoculated, on day 10, with Yoshida tumour. Starting from day 14 they were intraperitoneally treated, on alternate days, with 25 mg of L-aC diluted in 5 ml of saline solution for 10 days.
Group 4: 25 previously untreated rats were inoculated on day 10 with Yoshida tumour. On day 18 to 24 they were intraperitoneally treated, on alternate days, with 25 mg of L-aC diluted in 5 ml of saline solution for 10 days.
Group 5: 25 previously untreated rats were inoculated on day 10 with Yoshida tumour. On day 18 to 24 they were subjected to emptying, on alternate days, of 5 ml of ascitic fluid which was substituted with 50 mg of L-aC diluted in 5 ml of saline solution.
The onset and evolution of the tumour were checked by daily observation and weighing.

CC(=O)OC(CC(=O)[O-])C[N+](C)(C)C [L-aC, L-acetylcarnitine hydrochloride]
IC50 ([1]; Homo sapiens, read-out: IC 50 concentrations): 20 to 700 µg/mL | IC90 ([1]; Homo sapiens, read-out: IC 90 concentrations): 700 to 20000 µg/mL | most active medicaments (cases out of 5) ([1]; five explants): 4/5 | Cell Vitality Percentage After Exposure ([2]; Table 2 explant, 0.1x): 62% | Cell Vitality Percentage After Exposure ([2]; Table 2 explant, 1x): 32% | Cell Vitality Percentage After Exposure ([2]; Table 2 explant, 10x): 15% | Cell Vitality Percentage After Exposure ([2]; Table 3 explant, 0.1x): 42% | Cell Vitality Percentage After Exposure ([2]; Table 3 explant, 1x): 24% | Cell Vitality Percentage After Exposure ([2]; Table 3 explant, 10x): 7.2% | Cell Vitality Percentage After Exposure ([2]; Table 4 explant, 0.1x): 3.8% | Cell Vitality Percentage After Exposure ([2]; Table 4 explant, 1x): 1.5% | Cell Vitality Percentage After Exposure ([2]; Table 4 explant, 10x): 1.4% | Cell Vitality Percentage After Exposure ([2]; Table 5 explant, 0.1x): 63% | Cell Vitality Percentage After Exposure ([2]; Table 5 explant, 1x): 37% | Cell Vitality Percentage After Exposure ([2]; Table 5 explant, 10x): 32% | necroscopy finding ([3]; 6 animals sacrified at end of observation): no presence of the disease | animals showing ascites ([3]; Group 1 (25 mg L-aC i.p. alternate days 10 days before inoculation)): 4/25 | surviving animals ([3]; Group 1, 25 mg L-aC i.p. alternate days for 10 days, inoculated day 10, day 01 of observation): 25 | surviving animals ([3]; Group 1, 25 mg L-aC i.p. alternate days for 10 days, inoculated day 10, day 03): 25 | surviving animals ([3]; Group 1, 25 mg L-aC i.p. alternate days for 10 days, inoculated day 10, day 05): 25 | surviving animals ([3]; Group 1, 25 mg L-aC i.p. alternate days for 10 days, inoculated day 10, day 07): 25 | surviving animals ([3]; Group 1, 25 mg L-aC i.p. alternate days for 10 days, inoculated day 10, day 09): 25 | surviving animals ([3]; Group 1, 25 mg L-aC i.p. alternate days for 10 days, inoculated day 10, day 10): 25 | surviving animals ([3]; Group 1, 25 mg L-aC i.p. alternate days for 10 days, inoculated day 10, day 11): 25 | surviving animals ([3]; Group 1, 25 mg L-aC i.p. alternate days for 10 days, inoculated day 10, day 14): 25 | surviving animals ([3]; Group 1, 25 mg L-aC i.p. alternate days for 10 days, inoculated day 10, day 18): 25 | surviving animals ([3]; Group 1, 25 mg L-aC i.p. alternate days for 10 days, inoculated day 10, day 21): 20 | surviving animals ([3]; Group 1, 25 mg L-aC i.p. alternate days for 10 days, inoculated day 10, day 24): 15 | surviving animals ([3]; Group 1, 25 mg L-aC i.p. alternate days for 10 days, inoculated day 10, day 27): 13 | surviving animals ([3]; Group 1, 25 mg L-aC i.p. alternate days for 10 days, inoculated day 10, day 30): 13 | surviving animals ([3]; Group 1, 25 mg L-aC i.p. alternate days for 10 days, inoculated day 10, day 45): 13 | animals free from the disease and still alive ([3]; Group 1, of 21 ascites-free animals): 13 | animals with late ascites that died ([3]; Group 1, of 21 ascites-free animals, within day 27 of observation): 8 | day of observation by which ascitic animals died ([3]; Group 1, the 4 animals with ascites): ≤ 26 days | animals showing ascites ([3]; Group 2 (25 mg L-aC i.p. alternate days 10 days before and 10 days after inoculation)): 5/25 | surviving animals ([3]; Group 2, 25 mg L-aC i.p. alternate days 10 days before and 10 days after inoculation (day 10), day 01 of observation): 25 | surviving animals ([3]; Group 2, 25 mg L-aC i.p. alternate days 10 days before and 10 days after inoculation (day 10), day 03): 25 | surviving animals ([3]; Group 2, 25 mg L-aC i.p. alternate days 10 days before and 10 days after inoculation (day 10), day 05): 25 | surviving animals ([3]; Group 2, 25 mg L-aC i.p. alternate days 10 days before and 10 days after inoculation (day 10), day 07): 25 | surviving animals ([3]; Group 2, 25 mg L-aC i.p. alternate days 10 days before and 10 days after inoculation (day 10), day 09): 25 | surviving animals ([3]; Group 2, 25 mg L-aC i.p. alternate days 10 days before and 10 days after inoculation (day 10), day 10): 25 | surviving animals ([3]; Group 2, 25 mg L-aC i.p. alternate days 10 days before and 10 days after inoculation (day 10), day 11): 25 | surviving animals ([3]; Group 2, 25 mg L-aC i.p. alternate days 10 days before and 10 days after inoculation (day 10), day 14): 25 | surviving animals ([3]; Group 2, 25 mg L-aC i.p. alternate days 10 days before and 10 days after inoculation (day 10), day 18): 25 | surviving animals ([3]; Group 2, 25 mg L-aC i.p. alternate days 10 days before and 10 days after inoculation (day 10), day 21): 21 | surviving animals ([3]; Group 2, 25 mg L-aC i.p. alternate days 10 days before and 10 days after inoculation (day 10), day 24): 21 | surviving animals ([3]; Group 2, 25 mg L-aC i.p. alternate days 10 days before and 10 days after inoculation (day 10), day 27): 21 | surviving animals ([3]; Group 2, 25 mg L-aC i.p. alternate days 10 days before and 10 days after inoculation (day 10), day 30): 21 | surviving animals ([3]; Group 2, 25 mg L-aC i.p. alternate days 10 days before and 10 days after inoculation (day 10), day 45): 21 | animals free from the disease and still alive ([3]; Group 2, of 20 ascites-free animals): 18

Reference: patent US6673839B1, “Pharmaceutical compositions with antitumour activity” (Universita' Degli Studi di Catania, priority 1998, dated 2004)
